Results published in patent publication US8835622B2, “Expression cassettes for seed-specific expression in plants” (Bayer BioScience N.V., priority 2008, dated 2014).
Entries after “also recorded” stand apart in the source; their conditions may differ. Where two headings read alike, the source gives them in different places.

Test system: CYP704A2
Test: Enzyme activity and substrate specificity of recombinant CYP704A2 (microsomes from yeast, radiolabeled substrates, TLC and GC/MS of metabolites)
Format: biochemical, Arabidopsis thaliana
Conditions: for substrate of CYP704A2 / relative rate of metabolism (in words): 100 μM 14C radiolabelled substrate, with NADPH, TLC; for substrate of CYP704A2 / relative rate of metabolism (in words) / % of metabolisation / Product (nmole/min/nmole P450): 20 min at 27° C.; for % of metabolisation / Product (nmole/min/nmole P450): microsomes from yeast expressing CYP704A2, 100 μM radiolabeled substrate, 78 pmoles of CYP704A2, TLC
Protocol: Heterologous expression of CYP704A2 in Yeast—For functional expression of the full length CYP704A2 clone, we used a yeast expression system specifically developed for the expression of P450 enzymes and consisting of plasmid pYeDP60 and Saccharomyces cerevisiae WAT11 strain (Pompon D. et al (1996) Methods Enzymol 272, 51-64). Yeast cultures were grown and CYP704A2 expression was induced as described in Pompon et al. (1996) see above from one isolated transformed colony. After growth, cells were harvested by centrifugation and manually broken with glass beads (0.45 mm diameter) in 50 mM Tris-HCl buffer (pH 7.5) containing 1 mM EDTA and 600 mM sorbitol. The homogenate was centrifuged for 10 min at 10,000 g. The resulting supernatant was centrifuged for 1 h at 100,000 g. The pellet consisting of microsomal membranes was resuspended in 50 mM Tris-HCl (pH 7.4), 1 mM EDTA and 30% (v/v) glycerol with a Potter-Elvehjem homogenizer and stored at −30° C. The volume of resuspension buffer is proportional to the weight of yeast pellet: microsomes extracted from 6 g of yeast are resuspended in 3 ml of buffer. All procedures for microsomal preparation were carried out at 0-4° C. The cytochrome P450 content was measured by the method of Omura and Sato (1964) J Biol Chem 239, 2370-2378.
Enzyme activities—radiolabeled substrates were dissolved in ethanol that was evaporated before the addition of microsomes into the glass tube. Resolubilization of the substrates was confirmed by measuring the radioactivity of the incubation media. Enzymatic activities of CYP704A2 from transformed yeast or Arabidopsis microsomes were determined by following the formation rate of metabolites. The standard assay (0.1 ml) contained 20 mM sodium phosphate (pH 7.4), 1 mM NADPH, and radiolabeled substrate (100 μM). The reaction was initiated by the addition of NADPH and was stopped by the addition of 20 μl acetonitrile (containing 0.2% acetic acid). The reaction products were resolved by TLC or HPLC as described below.
Thin layer chromatographic (TLC) methods—Incubation media were directly spotted on TLC plates. For separation of metabolites from residual substrate, TLC were developed with a mixture of diethyl ether/light petroleum (boiling point, 40-60° C.)/formic acid (50:50:1, v/v/v). The plates were scanned with a radioactivity detector (Raytest Rita Star). The area corresponding to the metabolites were scraped into counting vials and quantified by liquid scintillation, or they were eluted from the silica with 10 ml of diethyl ether, which was removed by evaporation. They were then subjected to GC/MS analysis.
GC/MS analysis—GC-MS analysis were carried out on a gas chromatograph (Agilent 6890 Series) equipped with a 30-m capillary column with an internal diameter of 0.25 mm and a film thickness of 0.25 μm (HP-5MS). The gas chromatograph was combined with a quadrupole mass selective detector (Agilent 5973N). Mass spectra were recorded at 70 eV and analysed as in Eglinton et al. (1968) Org. Mass. Spectrom 1, 593-611.
The enzyme activity and substrate specificity of CYP704A2 was subsequently evaluated. Thereto 20 μl of microsomal membranes overexpressing CYP704A2 (i.e. […]) were incubated 20 min at 27° C. with 100 μM of different ^14C radiolabelled fatty acids, alkanols or alkanes (purchased with American Radiolabeled Chemicals) together with 0.1 mM of NADPH, 0.4 Units of glucose-6-phosphate dehydrogenase, 3 mM glucose-6-phosphate in buffer NaPi 20 mM, pH 7.4 in a final reaction volume of 100 μl. The reaction was quenched by the addition of 20 μl of 20% of acetonitrile in water, and the incubation mix was spotted on silicagel 60F254 plates (Merck) for analysis. Plates were developed with a mix of ether/petroleum ether/formic acid 50/50/1 until the migration front reached the top of the plate. Dried plates were then scanned with a Raytest radioisotope thin-layer analyzer and radioactivity in the spots of interest was quantified in order to evaluate the substrate conversion. […]

Structure (SMILES) | substrate of CYP704A2 / relative rate of metabolism (in words) | Product (nmole/min/nmole P450) | also measured
CCCCCCCCCCCCCCCC(=O)O [C16:0, palmitic acid] | preferentially metabolized | 18.3 | substrate of CYP704A2 / relative rate of metabolism (in words) (listed as palmitic acid): best substrate; rate of palmitic acid metabolism (concentration of palmitic acid of 100 μM): 18.3 nmol/min/nmole of P450; % of metabolisation: 14.3%
CCCCCC/C=C\CCCCCCCC(=O)O [palmitoleic acid] | not substrates | – | –
CCCCCCCCCCCCCCCCO [C16-OH:0] | – | 6.5 | –
CCCCCCCCCCCCCCCCCC(=O)O [stearic acid] | not substrates; also recorded: not metabolized | – | –
CCCCCCCCCCCCCC(=O)O [myristic acid] | not substrates | – | –
CCCCCCCCCCCCCCCC [C16 alkane, hexadecane] | – | 22.4 | products formed on incubation with CYP704A2 (TLC, GC/MS) (incubation with CYP704A2, products purified on TLC and identified by GC/MS): formation of three more polar compounds; % of metabolisation: 7.1%
CCCCCCCCCCCCO [C12-OH:0, dodecanol] | – | 12.6 | products formed on incubation with CYP704A2 (TLC, GC/MS): formation of two more polar compounds
CCCCCCCCCCCC(=O)O [C12:0, lauric acid] | – | 7.3 | –
